In PubChem BioAssay AID256 (DTP/NCI, 2004):
Several values for one entry are separate records, joined by “and”; a condition that tells them apart may be missing. Equal entries are not always repeated. Inconclusive results and toxic doses are left out.

System: CD2F1 mice, L1210 leukemia ip, survival T/C
Assay: NCI In Vivo Anticancer Drug Screen. Data for tumor model L1210 Leukemia (intraperitoneal) in CD2F1 (CDF1) mice
Conditions: higher = longer survival
Method in brief: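 Read-out first: treated-group measurement over vehicle-control measurement, expressed as a ratio. Animals bore a transplanted tumor line and were dosed with compound or vehicle.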

[1] = endpoint: mean survival time, dose: 100.0 mg/kg/injection, schedule: Q04DX003 (ip), vehicle: saline with Tween-80
[2] = endpoint: mean survival time, dose: 200.0 mg/kg/injection, schedule: Q04DX003 (ip), vehicle: saline with Tween-80
[3] = endpoint: mean survival time, dose: 400.0 mg/kg/injection, schedule: Q04DX003 (ip), vehicle: saline with Tween-80

With `CC1CCC(NC(=O)N(CCCl)N=O)CC1` (centres undefined) the T/C (endpoint: mean survival time, dose: 0.5 mg/kg/injection, schedule: Q01DX009 (ip), vehicle: saline + alcohol) was 96 % of control, the T/C (endpoint: mean survival time, dose: 1.0 mg/kg/injection, schedule: Q01DX009 (ip), vehicle: saline + alcohol) was 109 % of control and the T/C (endpoint: mean survival time, dose: 2.0 mg/kg/injection, schedule: Q01DX009 (ip), vehicle: saline + alcohol) was 109 % of control. The T/C (endpoint: mean survival time, dose: 3.12 mg/kg/injection, schedule: Q01DX001 (ip), vehicle: other) was 105 % of control and 110 % of control, the T/C (endpoint: mean survival time, dose: 3.13 mg/kg/injection, schedule: Q01DX001 (ip), vehicle: saline with Tween-80) was 103 % of control and the T/C (endpoint: mean survival time, dose: 4.0 mg/kg/injection, schedule: Q01DX001 (ip), vehicle: other) was 107 % of control. The T/C (endpoint: mean survival time, dose: 4.0 mg/kg/injection, schedule: Q01DX001 (ip), vehicle: saline + alcohol) was 104 % of control, the T/C (endpoint: mean survival time, dose: 4.0 mg/kg/injection, schedule: Q01DX009 (ip), vehicle: saline + alcohol) was 151 % of control and 185 % of control and the T/C (endpoint: mean survival time, dose: 5.0 mg/kg/injection, schedule: Q04DX003 (ip), vehicle: other) was 192 % of control. The T/C (endpoint: mean survival time, dose: 6.25 mg/kg/injection, schedule: Q01DX001 (ip), vehicle: saline + alcohol) was 98 % of control, the T/C (endpoint: mean survival time, dose: 6.25 mg/kg/injection, schedule: Q01DX001 (ip), vehicle: saline with Tween-80) was 114 % of control and the T/C (endpoint: mean survival time, dose: 8.0 mg/kg/injection, schedule: Q01DX009 (ip), vehicle: saline + alcohol) was 175 % of control and 229 % of control. The T/C (endpoint: mean survival time, dose: 8.0 mg/kg/injection, schedule: Q08DX002 (ip), vehicle: saline + alcohol) was 206 % of control, the T/C (endpoint: mean survival time, dose: 10.0 mg/kg/injection, schedule: Q04DX003 (ip), vehicle: other) was 371 % of control and the T/C (endpoint: mean survival time, dose: 12.5 mg/kg/injection, schedule: Q01DX001 (ip), vehicle: distilled water + Tween-80) was 340 % of control. The T/C (endpoint: mean survival time, dose: 12.5 mg/kg/injection, schedule: Q01DX001 (ip), vehicle: saline + alcohol) was 104 % of control, the T/C (endpoint: mean survival time, dose: 16.0 mg/kg/injection, schedule: Q01DX001 (ip), vehicle: other) was 283 % of control and the T/C (endpoint: mean survival time, dose: 16.0 mg/kg/injection, schedule: Q01DX001 (ip), vehicle: saline + alcohol) was 120 % of control. The T/C (endpoint: mean survival time, dose: 16.0 mg/kg/injection, schedule: Q01DX009 (ip), vehicle: saline + alcohol) was 207 % of control, the T/C (endpoint: mean survival time, dose: 16.0 mg/kg/injection, schedule: Q08DX002 (ip), vehicle: saline + alcohol) was 289 % of control and the T/C (endpoint: mean survival time, dose: 20.0 mg/kg/injection, schedule: Q04DX003 (ip), vehicle: other) was 392 % of control. For the same molecule, the T/C (endpoint: mean survival time, dose: 24.0 mg/kg/injection, schedule: Q01DX009 (ip), vehicle: saline + alcohol) was 107 % of control, the T/C (endpoint: mean survival time, dose: 24.0 mg/kg/injection, schedule: Q08DX002 (ip), vehicle: saline + alcohol) was 550 % of control and the T/C (endpoint: mean survival time, dose: 25.0 mg/kg/injection, schedule: Q01DX001 (ip), vehicle: distilled water + Tween-80) was 406 % of control. The T/C (endpoint: mean survival time, dose: 25.0 mg/kg/injection, schedule: Q01DX001 (ip), vehicle: saline + alcohol) was 95 % of control, the T/C (endpoint: mean survival time, dose: 25.0 mg/kg/injection, schedule: Q01DX001 (ip), vehicle: saline with Tween-80) was 393 % of control and the T/C (endpoint: mean survival time, dose: 27.0 mg/kg/injection, schedule: Q01DX001 (ip), vehicle: saline with Tween-80) was 813 % of control. For the same molecule, the T/C (endpoint: mean survival time, dose: 32.0 mg/kg/injection, schedule: Q01DX001 (ip), vehicle: other) was 357 % of control, the T/C (endpoint: mean survival time, dose: 32.0 mg/kg/injection, schedule: Q01DX001 (ip), vehicle: saline + alcohol) was 451 % of control and the T/C (endpoint: mean survival time, dose: 32.0 mg/kg/injection, schedule: Q01DX009 (ip), vehicle: saline + alcohol) was 256 % of control and 103 % of control. For the same molecule, the T/C (endpoint: mean survival time, dose: 40.0 mg/kg/injection, schedule: Q01DX001 (ip), vehicle: saline with Tween-80) was 555 % of control, the T/C (endpoint: mean survival time, dose: 48.0 mg/kg/injection, schedule: Q01DX009 (ip), vehicle: saline + alcohol) was 96 % of control and the T/C (endpoint: mean survival time, dose: 50.0 mg/kg/injection, schedule: Q01DX001 (ip), vehicle: saline + alcohol) was 158 % of control. The T/C (endpoint: mean survival time, dose: 50.0 mg/kg/injection, schedule: Q01DX001 (ip), vehicle: saline with Tween-80) was 213 % of control and 473 % of control, the T/C (endpoint: mean survival time, dose: 64.0 mg/kg/injection, schedule: Q01DX001 (ip), vehicle: other) was 204 % of control and the T/C (endpoint: mean survival time, dose: 64.0 mg/kg/injection, schedule: Q01DX009 (ip), vehicle: saline + alcohol) was 86 % of control. For the same molecule, the T/C (endpoint: median survival time, dose: 3.12 mg/kg/injection, schedule: Q01DX001 (ip), vehicle: other) was 121 % of control and 110 % of control, the T/C (endpoint: median survival time, dose: 3.12 mg/kg/injection, schedule: Q01DX001 (ip), vehicle: saline) was 98 % of control and 101 % of control and the T/C (endpoint: median survival time, dose: 6.25 mg/kg/injection, schedule: Q01DX001 (ip), vehicle: other) was 158 % of control. The T/C (endpoint: median survival time, dose: 6.25 mg/kg/injection, schedule: Q01DX001 (ip), vehicle: saline) was 98 % of control and 103 % of control, the T/C (endpoint: median survival time, dose: 9.0 mg/kg/injection, schedule: Q04DX002 (ip), vehicle: saline + Tween-80 + alcohol) was 180 % of control and the T/C (endpoint: median survival time, dose: 12.5 mg/kg/injection, schedule: Q01DX001 (ip), vehicle: other) was 159 % of control and 297 % of control. The T/C (endpoint: median survival time, dose: 12.5 mg/kg/injection, schedule: Q01DX001 (ip), vehicle: saline) was 103 % of control, the T/C (endpoint: median survival time, dose: 14.4 mg/kg/injection, schedule: Q01DX001 (ip), vehicle: saline + alcohol) was 718 % of control and the T/C (endpoint: median survival time, dose: 14.4 mg/kg/injection, schedule: Q01DX001 (ip), vehicle: saline with Tween-80) was 121 % of control. For the same molecule, the T/C (endpoint: median survival time, dose: 14.4 mg/kg/injection, schedule: Q04DX002 (ip), vehicle: saline + alcohol) was 622 % of control, the T/C (endpoint: median survival time, dose: 15.0 mg/kg/injection, schedule: Q04DX002 (ip), vehicle: saline + Tween-80 + alcohol) was 351 % of control and the T/C (endpoint: median survival time, dose: 24.0 mg/kg/injection, schedule: Q01DX001 (ip), vehicle: other) was 581 % of control. For the same molecule, the T/C (endpoint: median survival time, dose: 24.0 mg/kg/injection, schedule: Q01DX001 (ip), vehicle: saline + alcohol) was 718 % of control, the T/C (endpoint: median survival time, dose: 24.0 mg/kg/injection, schedule: Q04DX002 (ip), vehicle: saline + alcohol) was 623 % of control and the T/C (endpoint: median survival time, dose: 25.0 mg/kg/injection, schedule: Q01DX001 (ip), vehicle: other) was 297 % of control and 340 % of control. For the same molecule, the T/C (endpoint: median survival time, dose: 25.0 mg/kg/injection, schedule: Q04DX002 (ip), vehicle: saline + Tween-80 + alcohol) was 244 % of control, the T/C (endpoint: median survival time, dose: 36.0 mg/kg/injection, schedule: Q01DX001 (ip), vehicle: other) was 580 % of control and the T/C (endpoint: median survival time, dose: 40.0 mg/kg/injection, schedule: Q01DX001 (ip), vehicle: saline + alcohol) was 720 % of control. For the same molecule, the T/C (endpoint: median survival time, dose: 40.0 mg/kg/injection, schedule: Q01DX001 (ip), vehicle: saline with Tween-80) was 157 % of control, the T/C (endpoint: median survival time, dose: 40.0 mg/kg/injection, schedule: Q01DX001 (oral), vehicle: saline with Tween-80) was 393 % of control and 590 % of control and 983 % of control and the T/C (endpoint: median survival time, dose: 40.0 mg/kg/injection, schedule: Q04DX002 (ip), vehicle: saline + alcohol) was 286 % of control. The T/C (endpoint: median survival time, dose: 42.0 mg/kg/injection, schedule: Q04DX002 (ip), vehicle: saline + Tween-80 + alcohol) was 170 % of control, the T/C (endpoint: median survival time, dose: 50.0 mg/kg/injection, schedule: Q01DX001 (ip), vehicle: other) was 158 % of control and 193 % of control and the T/C (endpoint: median survival time, dose: 50.0 mg/kg/injection, schedule: Q01DX001 (oral), vehicle: saline with Tween-80) was 193 % of control and 983 % of control (2×). The T/C (endpoint: median survival time, dose: 60.0 mg/kg/injection, schedule: Q01DX001 (ip), vehicle: other) was 119 % of control, the T/C (endpoint: median survival time, dose: 60.0 mg/kg/injection, schedule: Q01DX001 (oral), vehicle: saline with Tween-80) was 185 % of control and 983 % of control (2×) and the T/C (endpoint: median survival time, dose: 66.7 mg/kg/injection, schedule: Q01DX001 (ip), vehicle: saline + alcohol) was 328 % of control. The T/C (endpoint: median survival time, dose: 66.7 mg/kg/injection, schedule: Q01DX001 (ip), vehicle: saline with Tween-80) was 463 % of control and the T/C (endpoint: median survival time, dose: 100.0 mg/kg/injection, schedule: Q01DX001 (ip), vehicle: other) was 116 % of control.

With `CC(=O)SC(Cc1ccccc1)(Cc1ccccc1)SC(C)=O` the T/C [1] was 97 % of control, the T/C [2] was 95 % of control and the T/C [3] was 100 % of control.

For `CC(C)CCC(C)C1CCC2C3CCC4CC(=O)CC4(C)C3CCC12C` (centres undefined), the T/C [1] was 100 % of control, the T/C [2] was 94 % of control and the T/C [3] was 97 % of control.

`CC(CC=O)CCCC(C)(C)O` (centres undefined) was tested, and the T/C [1] was 103 % of control, the T/C [2] was 95 % of control and the T/C [3] was 98 % of control.

With `CC(=O)Oc1ccc2ccccc2c1-c1c(OC(C)=O)ccc2ccccc12` the T/C (endpoint: mean survival time, dose: 25.0 mg/kg/injection, schedule: Q04DX002 (ip), vehicle: saline with Tween-80) was 101 % of control, the T/C (endpoint: mean survival time, dose: 50.0 mg/kg/injection, schedule: Q04DX002 (ip), vehicle: saline with Tween-80) was 101 % of control and the T/C (endpoint: mean survival time, dose: 100.0 mg/kg/injection, schedule: Q04DX002 (ip), vehicle: saline with Tween-80) was 101 % of control.

For `NC(CSC1(c2ccccc2)c2ccccc2-c2ccccc21)C(=O)O` (centres undefined), the T/C (endpoint: mean survival time, dose: 25.0 mg/kg/injection, schedule: Q01DX009 (ip), vehicle: saline) was 96 % of control, the T/C (endpoint: mean survival time, dose: 50.0 mg/kg/injection, schedule: Q01DX009 (ip), vehicle: saline) was 102 % of control and the T/C (endpoint: mean survival time, dose: 100.0 mg/kg/injection, schedule: Q01DX009 (ip), vehicle: saline) was 100 % of control. The T/C (endpoint: mean survival time, dose: 200.0 mg/kg/injection, schedule: Q01DX009 (ip), vehicle: saline) was 100 % of control and the T/C (endpoint: mean survival time, dose: 400.0 mg/kg/injection, schedule: Q01DX009 (ip), vehicle: saline) was 110 % of control.

In the case of `CC1=Cc2ccc(C)cc2C(=O)C1=O`, the T/C (endpoint: mean survival time, dose: 1.56 mg/kg/injection, schedule: Q04DX002 (ip), vehicle: saline with Tween-80) is reported as 117 % of control and the T/C (endpoint: mean survival time, dose: 3.13 mg/kg/injection, schedule: Q04DX002 (ip), vehicle: saline with Tween-80) is reported as 106 % of control.
